Results reported in ChEMBL document CHEMBL4680222, “Sensitive fluorogenic substrates for sirtuin deacylase inhibitor discovery” (Eur J Med Chem, 2020).
Active and inactive are the calls of the source. The calls are words filed in the database; no cut-off is given here. *1 amine or outer side, *2 acyl side, *3 side chain or, on linkers, in order; H or OH if unused. Where a SMILES comes first, the peptide text is derived from it. The star is where a group is joined. AMC = Cc1cc(=O)oc2cc(N*)ccc12; Suc = O=C(CCC(=O)[*:2])[*:1]; Decanoyl = CCCCCCCCCC(=O)*

Key:
[1] = target: T1, NAD-dependent protein deacetylase sirtuin-2 (Homo sapiens) (UniProt Q8IXJ6); test: Substrate activity at human N-terminal His-tagged SIRT2 (56 to 356 residues) expressed in Escherichia coli at 5 uM measured after 2 hrs in presence of NAD+ and trypsin by fluorescence assay
T1 sequence (whole entry): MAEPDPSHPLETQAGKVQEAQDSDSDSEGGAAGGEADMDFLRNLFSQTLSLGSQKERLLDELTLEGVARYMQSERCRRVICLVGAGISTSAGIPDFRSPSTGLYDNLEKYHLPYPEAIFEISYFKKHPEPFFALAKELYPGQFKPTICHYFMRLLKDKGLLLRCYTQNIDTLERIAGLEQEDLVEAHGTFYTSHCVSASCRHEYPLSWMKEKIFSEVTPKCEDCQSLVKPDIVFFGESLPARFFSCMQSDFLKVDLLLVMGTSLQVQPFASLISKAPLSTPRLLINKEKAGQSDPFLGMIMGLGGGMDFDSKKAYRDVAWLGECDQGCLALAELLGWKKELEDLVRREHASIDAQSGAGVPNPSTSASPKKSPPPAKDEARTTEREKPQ

[2] = target: T2, NAD-dependent protein deacetylase sirtuin-1 (Homo sapiens) (UniProt Q96EB6); test: Substrate activity at human N-terminal His-tagged SIRT1 (183 to 664 residues) expressed in Escherichia coli at 50 uM measured after 2 hrs in presence of NAD+ and trypsin by fluorescence assay
T2 sequence (whole entry): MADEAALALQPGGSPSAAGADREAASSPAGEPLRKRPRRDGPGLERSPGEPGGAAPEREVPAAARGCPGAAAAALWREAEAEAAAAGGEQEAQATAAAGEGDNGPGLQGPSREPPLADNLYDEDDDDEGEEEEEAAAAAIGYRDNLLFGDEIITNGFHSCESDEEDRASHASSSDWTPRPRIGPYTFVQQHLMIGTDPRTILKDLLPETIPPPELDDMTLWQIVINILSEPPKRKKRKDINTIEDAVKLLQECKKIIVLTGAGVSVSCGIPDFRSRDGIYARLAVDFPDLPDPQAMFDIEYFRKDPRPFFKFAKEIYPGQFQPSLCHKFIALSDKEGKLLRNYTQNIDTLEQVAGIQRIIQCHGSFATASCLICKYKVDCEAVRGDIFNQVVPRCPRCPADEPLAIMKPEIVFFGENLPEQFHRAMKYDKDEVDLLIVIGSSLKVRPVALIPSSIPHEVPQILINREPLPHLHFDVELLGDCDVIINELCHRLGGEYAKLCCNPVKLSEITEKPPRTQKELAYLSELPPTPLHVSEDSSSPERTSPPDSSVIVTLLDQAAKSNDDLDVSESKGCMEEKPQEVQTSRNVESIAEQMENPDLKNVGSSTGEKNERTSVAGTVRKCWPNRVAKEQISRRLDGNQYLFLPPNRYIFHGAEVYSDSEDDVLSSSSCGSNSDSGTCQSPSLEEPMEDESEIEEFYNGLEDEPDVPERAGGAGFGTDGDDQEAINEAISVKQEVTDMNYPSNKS

[3] = target: T3, NAD-dependent protein deacetylase sirtuin-7 (Homo sapiens) (UniProt Q9NRC8); test: Substrate activity at human N-terminal His-tagged SIRT7 (68 to 354 residues) expressed in Escherichia coli at 5 uM measured after 2 hrs in presence of NAD+ and trypsin by fluorescence assay
T3 sequence (whole entry): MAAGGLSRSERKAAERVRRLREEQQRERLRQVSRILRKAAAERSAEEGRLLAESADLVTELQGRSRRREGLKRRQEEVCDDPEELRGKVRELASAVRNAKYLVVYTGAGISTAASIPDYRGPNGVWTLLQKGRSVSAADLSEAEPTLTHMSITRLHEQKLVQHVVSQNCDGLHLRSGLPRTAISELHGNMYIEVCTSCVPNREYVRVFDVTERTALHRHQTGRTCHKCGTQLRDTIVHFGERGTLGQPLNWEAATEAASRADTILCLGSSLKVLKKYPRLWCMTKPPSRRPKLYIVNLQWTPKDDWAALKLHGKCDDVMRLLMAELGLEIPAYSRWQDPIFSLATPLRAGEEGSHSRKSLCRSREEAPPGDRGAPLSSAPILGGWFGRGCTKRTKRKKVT

[4] = target: T3, NAD-dependent protein deacetylase sirtuin-7 (Homo sapiens); test: Substrate activity at human N-terminal His-tagged SIRT7 (68 to 354 residues) expressed in Escherichia coli at 0.5 uM measured after 2 hrs in presence of NAD+ and trypsin by fluorescence assay
[5] = target: T4, NAD-dependent protein deacetylase sirtuin-3, mitochondrial (Homo sapiens) (UniProt Q9NTG7); test: Substrate activity at human N-terminal His-tagged SIRT3 (122 to 391 residues) expressed in Escherichia coli at 50 uM measured after 2 hrs in presence of NAD+ and trypsin by fluorescence assay
T4 sequence (whole entry): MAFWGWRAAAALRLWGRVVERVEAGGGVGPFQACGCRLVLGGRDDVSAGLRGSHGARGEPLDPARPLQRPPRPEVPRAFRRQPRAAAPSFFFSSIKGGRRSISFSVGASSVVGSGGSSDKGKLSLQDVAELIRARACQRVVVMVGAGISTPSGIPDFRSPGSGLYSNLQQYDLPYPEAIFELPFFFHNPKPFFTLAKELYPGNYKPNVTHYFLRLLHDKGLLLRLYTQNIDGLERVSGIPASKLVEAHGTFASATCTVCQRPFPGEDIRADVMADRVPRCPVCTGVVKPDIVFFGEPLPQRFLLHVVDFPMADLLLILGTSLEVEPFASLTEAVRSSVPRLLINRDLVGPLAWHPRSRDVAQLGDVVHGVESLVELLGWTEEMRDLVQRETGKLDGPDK

[6] = target: T4, NAD-dependent protein deacetylase sirtuin-3, mitochondrial (Homo sapiens); test: Substrate activity at human N-terminal His-tagged SIRT3 (122 to 391 residues) expressed in Escherichia coli at 5 uM measured after 2 hrs in presence of NAD+ and trypsin by fluorescence assay
[7] = target: NAD-dependent protein deacylase sirtuin-6 (Homo sapiens) (UniProt Q8N6T7); test: Substrate activity at human N-terminal His-tagged SIRT6 (1 to 355 residues) expressed in Escherichia coli at 0.5 uM measured after 2 hrs in presence of NAD+ and trypsin by fluorescence assay
[8] = target: NAD-dependent protein deacylase sirtuin-5, mitochondrial (Homo sapiens) (UniProt Q9NXA8); test: Substrate activity at human N-terminal His-tagged SIRT5 (34 to 302 residues) expressed in Escherichia coli at 5 uM measured after 1 hr in presence of NAD+ and trypsin by fluorescence assay
[9] = target: NAD-dependent protein deacylase sirtuin-5, mitochondrial (Homo sapiens) (UniProt Q9NXA8); test: Substrate activity at human N-terminal His-tagged SIRT5 (34 to 302 residues) expressed in Escherichia coli at 0.5 uM measured after 2 hrs in presence of NAD+ and trypsin by fluorescence assay
[10] = target: T2, NAD-dependent protein deacetylase sirtuin-1 (Homo sapiens); test: Substrate activity at human N-terminal His-tagged SIRT1 (183 to 664 residues) expressed in Escherichia coli at 5 uM measured after 2 hrs in presence of NAD+ and trypsin by fluorescence assay
[11] = target: NAD-dependent protein deacylase sirtuin-5, mitochondrial (Homo sapiens) (UniProt Q9NXA8); test: Substrate activity at human N-terminal His-tagged SIRT5 (34 to 302 residues) expressed in Escherichia coli at 5 uM measured after 2 hrs in presence of NAD+ and trypsin by fluorescence assay
[12] = target: T3, NAD-dependent protein deacetylase sirtuin-7 (Homo sapiens); test: Substrate activity at human N-terminal His-tagged SIRT7 (68 to 354 residues) expressed in Escherichia coli at 50 uM measured after 2 hrs in presence of NAD+ and trypsin by fluorescence assay
[13] = target: NAD-dependent protein deacylase sirtuin-5, mitochondrial (Homo sapiens) (UniProt Q9NXA8); test: Substrate activity at human N-terminal His-tagged SIRT5 (34 to 302 residues) expressed in Escherichia coli at 50 uM measured after 2 hrs in presence of NAD+ and trypsin by fluorescence assay
[14] = target: T2, NAD-dependent protein deacetylase sirtuin-1 (Homo sapiens); test: Substrate activity at human N-terminal His-tagged SIRT1 (183 to 664 residues) expressed in Escherichia coli at 0.5 uM measured after 2 hrs in presence of NAD+ and trypsin by fluorescence assay
[15] = target: NAD-dependent protein deacylase sirtuin-6 (Homo sapiens) (UniProt Q8N6T7); test: Substrate activity at human N-terminal His-tagged SIRT6 (1 to 355 residues) expressed in Escherichia coli at 50 uM measured after 2 hrs in presence of NAD+ and trypsin by fluorescence assay
[16] = target: NAD-dependent protein deacylase sirtuin-6 (Homo sapiens) (UniProt Q8N6T7); test: Substrate activity at human N-terminal His-tagged SIRT6 (1 to 355 residues) expressed in Escherichia coli at 5 uM measured after 2 hrs in presence of NAD+ and trypsin by fluorescence assay
[17] = target: T1, NAD-dependent protein deacetylase sirtuin-2 (Homo sapiens); test: Substrate activity at human N-terminal His-tagged SIRT2 (56 to 356 residues) expressed in Escherichia coli at 0.5 uM measured after 2 hrs in presence of NAD+ and trypsin by fluorescence assay
[18] = target: T1, NAD-dependent protein deacetylase sirtuin-2 (Homo sapiens); test: Substrate activity at human N-terminal His-tagged SIRT2 (56 to 356 residues) expressed in Escherichia coli at 50 uM measured after 2 hrs in presence of NAD+ and trypsin by fluorescence assay
[19] = target: T4, NAD-dependent protein deacetylase sirtuin-3, mitochondrial (Homo sapiens); test: Substrate activity at human N-terminal His-tagged SIRT3 (122 to 391 residues) expressed in Escherichia coli at 0.5 uM measured after 2 hrs in presence of NAD+ and trypsin by fluorescence assay
[20] = target: T1, NAD-dependent protein deacetylase sirtuin-2 (Homo sapiens); test: Substrate activity at human N-terminal His-tagged SIRT2 (56 to 356 residues) expressed in Escherichia coli at 5 uM measured after 1 hr in presence of NAD+ and trypsin by fluorescence assay

Sequence of NAD-dependent protein deacylase sirtuin-5, mitochondrial (Homo sapiens) (Q9NXA8 37-310 limits assumed): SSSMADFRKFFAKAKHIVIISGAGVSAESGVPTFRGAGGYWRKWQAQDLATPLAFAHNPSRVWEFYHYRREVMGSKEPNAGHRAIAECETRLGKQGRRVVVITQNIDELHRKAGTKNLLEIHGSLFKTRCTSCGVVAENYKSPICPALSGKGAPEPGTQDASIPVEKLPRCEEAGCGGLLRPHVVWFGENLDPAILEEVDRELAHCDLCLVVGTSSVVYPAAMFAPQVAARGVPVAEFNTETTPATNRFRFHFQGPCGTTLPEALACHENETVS
Sequence of NAD-dependent protein deacylase sirtuin-6 (Homo sapiens) (Q8N6T7 whole entry, the tested form may be a part): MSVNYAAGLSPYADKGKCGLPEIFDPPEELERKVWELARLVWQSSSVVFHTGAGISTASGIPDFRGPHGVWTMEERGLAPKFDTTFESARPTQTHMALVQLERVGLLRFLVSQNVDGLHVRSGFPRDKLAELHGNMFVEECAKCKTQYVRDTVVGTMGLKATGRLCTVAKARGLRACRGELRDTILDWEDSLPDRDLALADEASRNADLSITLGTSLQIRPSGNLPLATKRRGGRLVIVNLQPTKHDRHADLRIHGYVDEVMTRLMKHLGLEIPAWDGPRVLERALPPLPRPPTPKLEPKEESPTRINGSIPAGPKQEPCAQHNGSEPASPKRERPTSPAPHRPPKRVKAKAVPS

Activity [1] [RFU]	Activity [2] [RFU]	Activity [3] [RFU]	Activity [4] [RFU]	Activity [5] [RFU]	Activity [6] [RFU]	Activity [7] [RFU]	Activity [8]	Activity [9] [RFU]	Activity [10] [RFU]	Activity [11] [RFU]	Activity [12] [RFU]	Activity [13] [RFU]	Activity [14] [RFU]	Activity [15] [RFU]	Activity [16] [RFU]	Activity [17] [RFU]	Activity [18] [RFU]	Activity [19] [RFU]	Activity [20]	SMILES
0.25	1.05	0.41	0.3	1.32	0.53	0.38	Active	3.36	0.44	21.5	1.18	1.5	0.24	1.18	0.37	0.24	1.03	0.48	–	CC(=O)N[C@@H](CO)C(=O)N[C@@H](CC(C)C)C(=O)NCC(=O)N[C@@H](CCCCNC(=O)CCC(=O)O)C(=O)Nc1ccc2c(C)cc(=O)oc2c1 (Ac-SLGK(Suc)-{AMC})
7.07	1.34	1.03	0.29	1.64	1.04	0.4	–	0.31	2.13	0.39	0.73	1.08	1.38	0.73	0.3	1.38	13.5	0.67	Active	CCCCCCCCCC(=O)NCCCC[C@H](NC(=O)[C@@H](NC(=O)[C@H](CO)NC(=O)[C@H](CO)NC(C)=O)[C@@H](C)CC)C(=O)Nc1ccc2c(C)cc(=O)oc2c1 (Ac-SSIK(Decanoyl)-{AMC})
0.21	0.69	1.36	0.28	0.89	0.55	0.41	Active	1.15	0.36	8.98	0.51	0.71	0.16	0.51	0.32	0.16	1.03	0.49	–	CC(=O)N[C@@H](Cc1cnc[nH]1)C(=O)N[C@@H](Cc1ccccc1)C(=O)N[C@@H](CO)C(=O)N[C@@H](CCCCNC(=O)CCC(=O)O)C(=O)Nc1ccc2c(C)cc(=O)oc2c1 (Ac-HFSK(Suc)-{AMC})
20.6	4.13	0.38	0.28	1.86	0.66	0.39	–	0.3	1.37	0.42	0.73	1.24	2.97	0.73	0.33	2.97	79.9	0.51	Active	CCCCCCCCCC(=O)NCCCC[C@H](NC(=O)[C@H](CC(=O)O)NC(=O)[C@@H](NC(=O)[C@H](CCC(=O)O)NC(C)=O)[C@@H](C)O)C(=O)Nc1ccc2c(C)cc(=O)oc2c1 (Ac-ETDK(Decanoyl)-{AMC})
0.21	0.98	0.32	0.28	1.42	0.56	0.41	Active	3.07	0.35	25.1	1.14	1.41	0.2	1.14	0.37	0.2	0.9	0.5	–	CC(=O)N[C@@H](CC(C)C)C(=O)NCC(=O)N[C@@H](CO)C(=O)N[C@@H](CCCCNC(=O)CCC(=O)O)C(=O)Nc1ccc2c(C)cc(=O)oc2c1 (Ac-LGSK(Suc)-{AMC})
